In US9421204B2, “Oligomer modified diaromatic substituted compounds” (priority 2010, dated 2016):
Where two headings read alike, the source gives them in different places.

What was measured:
[1] = pKa determination (Sirius GLpKa); format: physicochemical; conditions: aqueous pKa, 25° C.
Method: The Sirius GLpKa instrument is used to determine the pKa and Log P. A blank standardization has to be completed first and passed in order to conduct the compound experiments. The solutions used by the instrument for the blank titration include water, a pH solution, and a surfactant (TRITON X-100). The TRITON X-100 was purchased commercially from Sirus. The 0.5% solution of TRITON X-100 was used in the experiment. In a 1 L volumetric flask 5 mls of TRITON X-100 is added and MILLI Q water to volume. The vessels used by the instrument were filled to ⅓ of their volume with each solution. Therefore the assay tray contains one vessel for water, pH solution, and surfactant for the blank run. The temperature of the water bath for the instrument is 25° C. The blank is calculated as an average of three “good” experiments. The “good” was denoted by a green check mark next to the assay number in the computer software. Once the blank was run successfully the instrument was ready to conduct the experiments.
The pKa has to be determined first in order to calculate the Log P. The API is used to determine the pKa needed for the Log P experiment followed by the conjugates. The base compound was first weighed into a vessel. The amount weighed for each sample was 10% of the molecular weight of the compound. The same procedure was followed for each conjugate. The vessels were placed in the assay tray of the instrument. A method had to be set up for the pKa run. The experimental parameters are entered into the computer software. These included sample weight, molecular weight, assay type (aqueous pKa), number of assays (three), and titration range (generally 3.5-12). The run was started. There are three measurements for each run that are averaged to obtain the final results from the data points collected in the calculation software. All runs were denoted as “good” by the green check mark next to the assay number.

[2] = tested on: HIV-1RF; test: Anti-HIV-1 cytoprotection assay in CEM-SS cells; format: cell-based; conditions: for EC50: CEM-SS cells, XTT, read-out: CEM-SS/HIV-1RF EC50; for Therapeutic Index: CEM-SS/HIV-1RF
Method: Cell Preparation—CEM-SS cells were passaged in T-75 flasks prior to use in the antiviral assay. On the day preceding the assay, the cells were split 1:2 to assure they were in an exponential growth phase at the time of infection. Total cell and viability quantification was performed using a hemocytometer and Trypan Blue dye exclusion. […] The cells were resuspended at 5×10^4 cells per ml in tissue culture medium and added to the drug containing microtiter plates in a volume of 50 μL.
Virus Preparation—The virus used for the assay was the lymphocyte-tropic virus strain HIV-IRF. The virus was obtained from the NIH AIDS Research and Reference Reagent Program and stock virus pools were produced in CEM-SS cells. A pretitred aliquot of virus was removed from the freezer (−80° C.) and allowed to thaw slowly to room temperature in a biological safety cabinet.
Plate Format—Each plate contains cell control wells (cells only), virus control wells (cells plus virus), drug toxicity wells (cells plus drug only), drug colorimetric control wells (drug only) as well as experimental wells (drug plus cells plus virus). Samples were tested in triplicate with eleven half-log dilutions per compound.
(§1) Efficacy and Toxicity XTT—Following incubation at 37° C. in a 5% CO2 incubator, the test plates were stained with the tetrazolium dye XTT (2,3-bis(2-methoxy-4-nitro-5-sulfophenyl)-5-[(phenylamino)carbonyl]-2H-tetrazolium hydroxide). XTT-tetrazolium is metabolized by the mitochondrial enzymes of metabolically active cells to a soluble formazan product, allowing rapid quantitative analysis of the inhibition of HIV induced cell killing by anti-HIV test substances. XTT solution was prepared daily as a stock of 1 mg/mL in RPMI1640. Phenazine methosulfate (PMS) solution was prepared at 0.15 mg/mL in PBS and stored in the dark at −20° C. XTT/PMS stock was prepared immediately before use by adding 40 μL of PMS per ml of XTT solution. Fifty microliters of XTT/PMS was added to each well of the plate and the plate was re-incubated for 4 hours at 37° C. Plates were sealed with adhesive plate sealers and shaken gently or inverted several times to mix the soluble fosmazan product and the plate was read spectrophotometrically at 450/650 nm with a Molecular Devices Vmax plate reader.
Anti-HIV-1 Cytopathic Effects Inhibition Assay Evaluations: Eight compounds were evaluated against the RF strain of HIV-1 in CEM-SS cells using a 12 concentration dose response curve.
(§2) Data Analysis—Raw data was collected from the Softmax Pro 4.6 software and imported into a Excel XLFit4 spreadsheet for analysis by four parameter curve fit calculations. Both antiviral activity and toxicity are calculated.

[3] = tested on: NL4-3P236L; test: Anti-HIV cytoprotection assay, drug resistant NL4-3 P236L; format: cell-based; conditions: HIV-1 strain NL4-3P236L; for EC50: CEM-SS cells
Method: Cells were prepared as described above. Virus Preparation—The wild type NL4-3 and drug resistant A17 viruses were obtained from the NIH AIDS Research and Reference Reagent Program and stock virus pools were produced in CEM-SS cells. Amino acid substitutes of L100I, Y181C and P23L were introduced by site-directed mutagenesis into pN L4-3 and stock virus pools were produced in CEM-SS cells. A pretitered aliquot of virus was removed from the freezer (−80° C.) and allowed to thaw slowly to room temperature in a biological safety cabinet. Virus was re-suspended and diluted into tissue culture medium such that the amount of virus added to each well in a volume of 50 μL was the amount determined to yield 85 to 95% cell killing at 6 days post-infection.
as §1, with “Plate Format—Each plate contains cell control wells (cells only), virus control wells (cells plus virus), drug toxicity wells (cells plus drug only), drug colorimetric control wells (drug only) as well as experimental wells (drug plus cells plus virus). Samples were tested in triplicate with eleven half-log dilutions per compound. Efficacy” for “Efficacy”, “XTT-tetrazolium was” for “XTT-tetrazolium is”, “C. XTTIPMS” for “C. XTT/PMS”, “soluble formazan” for “soluble fosmazan”
as §2

[4] = Toxicity XTT in CEM-SS cells (cytoprotection assay); format: cell-based; conditions: human, CEM-SS cells, XTT; read-out: CEM-SS TC50
Method in brief: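 CEM-SS cells in exponential growth (>95% viable) were plated with compound alone, as eleven half-log dilutions in triplicate, at 37 °C and 5% CO2. Viability was measured by XTT/PMS metabolism over 4 h, read at 450/650 nm. Toxicity was derived by four-parameter curve fitting.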

[5] = Human immunodeficiency virus 1, CEM-SS

For “5-O-mPEG9-Delavirdine [mPEG9-O-Delavirdine]”, the pKa1 [1] was 4.655, the EC50 [2] was 130 nM and the “Therapeutic Index” value [2] was 323.1. It also gave an EC50 ([3]; read-out: EC50) greater than 5000 nM.

For `COCCNc1ccc2[nH]c(C(=O)N3CCN(c4ncccc4NC(C)C)CC3)cc2c1` [5-mPEG1-NH-Delavirdine, 5-mPEG-NH-Delavirdine], the CC50 [4] was 50900 nM, the “Therapeutic Index” value [2] was 1083.11 and the EC50 [2, 5] was 47 nM. For the same compound, the EC50 [3, 5] was greater than 1000 nM.

In the case of `COCCOCCNc1ccc2[nH]c(C(=O)N3CCN(c4ncccc4NC(C)C)CC3)cc2c1` [5-mPEG2-NH-Delavirdine], the CC50 [4] is reported as 55500 nM, the “Therapeutic Index” value [2] is reported as 3266.29 and the EC50 [2, 5] is reported as 17 nM. The TI [3] was greater than 4.4 and the EC50 [3, 5] was 230 nM.

In the case of `COCCOCCOCCOc1ccc2[nH]c(C(=O)N3CCN(c4ncccc4NC(C)C)CC3)cc2c1` [mPEG3-O-Delavirdine, 5-O-mPEG3-Delavirdine], the pKa1 [1] is reported as 3.792, the CC50 [4] is reported as 26900 nM and the “Therapeutic Index” value [2] is reported as 499.0. The EC50 [2, 5] was 54 nM and the EC50 [3, 5] was greater than 5000 nM.

With `COCCOCCOCCOCCOc1ccc2[nH]c(C(=O)N3CCN(c4ncccc4NC(C)C)CC3)cc2c1` [mPEG4-O-Delavirdine, 5-O-mPEG4-Delavirdine] the pKa1 [1] was 4.275, the CC50 [4] was 34000 nM and the “Therapeutic Index” value [2] was 213.8. For the same compound, the EC50 [2, 5] was 160 nM and the EC50 [3, 5] was greater than 5000 nM.

With `COCCOCCOCCOCCOCCOc1ccc2[nH]c(C(=O)N3CCN(c4ncccc4NC(C)C)CC3)cc2c1` [mPEG5-O-Delavirdine, 5-O-mPEG5-Delavirdine] the pKa1 [1] was 4.454, the CC50 [4] was 14400 nM and the “Therapeutic Index” value [2] was 19.0. The EC50 [2, 5] was 760 nM.

For `COCCOCCOCCOCCOCCOCCOc1ccc2[nH]c(C(=O)N3CCN(c4ncccc4NC(C)C)CC3)cc2c1` [mPEG6-O-Delavirdine, 5-O-mPEG6-Delavirdine], the pKa1 [1] was 4.447, the CC50 [4] was 22500 nM and the “Therapeutic Index” value [2] was 26.7. It also gave an EC50 [2, 5] of 840 nM.

In the case of `COCCOCCOCCOCCOCCOCCOCCOc1ccc2[nH]c(C(=O)N3CCN(c4ncccc4NC(C)C)CC3)cc2c1` [mPEG7-O-Delavirdine, 5-O-mPEG7-Delavirdine], the pKa1 [1] is reported as 4.683, the CC50 [4] is reported as 35500 nM and the “Therapeutic Index” value [2] is reported as 76.1. For the same compound, the EC50 [2, 5] was 470 nM.

For `COCCOCCOCCOCCOCCOCCOCCOCCOc1ccc2[nH]c(C(=O)N3CCN(c4ncccc4NC(C)C)CC3)cc2c1` [mPEG8-O-Delavirdine, 5-O-mPEG8-Delavirdine], the pKa1 [1] was 4.667, the CC50 [4] was 52500 nM and the “Therapeutic Index” value [2] was 144.2. The EC50 [2, 5] was 360 nM.
